Data on four molecules can be found in patent EP3461480A1, “COMBINATION OF A DNA DAMAGE RESPONSE CELL CYCLE CHECKPOINT INHIBITORS AND BELINOSTAT FOR TREATING CANCER” (ONXEO, priority 2017, dated 2019).

Each structure is given as a SMILES string.

Common to all, as to format: cell-based
Data set [1] deals with triple negative breast cancer (TBNC) cell line MDA-MB-231. The data set is described as follows: XTT cell survival assay and CalcuSyn combination index, MDA-MB-231. The conditions noted are these: Homo sapiens, monotherapy, XTT assay, dose at which 50% of the cells are viable. As to the method:
(§1) Cell cultures were performed with the triple negative breast cancer (TBNC) cell line MDA-MB-231, the histiocytic lymphoma cell line U937 and the non-tumor mammary cell line MCF-10A. Cells were grown according to the supplier's instructions. Cell lines were maintained at 37°C in a humidified atmosphere at 5% CO2, except the MDA-MB-231 cell line which was maintained at 0% CO2.
(§2) In a first step, the characterization of the effect of drugs monotherapy on cell survival (tumour and non-tumour cells) was performed. MDA-MB-231 (5.10^3 cells/well), MCF-10A (5.10^3 cells/well) and U937 (2.10^4 cells/well) were seeded in 96 well-plates and incubated 24 hours at +37°C before addition of the drug at increasing concentrations for 4 to 7 days. Following drug exposure, cell survival was measured using the XTT assay (Sigma Aldrich). Briefly, the XTT solution was added directly to each well containing cell culture and the cells incubated for 4 to 24 hours at 37°C before reading the absorbance at 490 nm and 690 nm using a microplate reader (BMG Fluostar, Galaxy). Cell survival is calculated as the ratio of living treated cells to living mock-treated cells. The IC50 (which represents the dose at which 50% of the cells are viable) is calculated by a non-linear regression model using GraphPad Prism software (version 5.04) by plotting the percentage viability against the Log of the drug concentration on each cell line.
In a second step, analysis and quantification of the drug combination efficacy were performed. Cells were seeded in 96-well plates at the appropriate densities and treated with belinostat (PXD-101 - Spectrum) and/or ATR (ATRi - AZD6738, Selleckchem; VE-821, Selleckchem) simultaneously during 4 to 7days. Belinostat + ATRi combinations was performed at a constant ratio (from IC50/8 to IC50*8) as previously described (Chou TC, Talalay P. Adv Enzyme Regul. 1984;22:27-55 (Quantitative analysis of dose-effect relationships: the combined effects of multiple drugs or enzyme inhibitors). Cell survival was measured using the XTT assay (see above).
Combination efficacy is evaluated by "the combination index (CI)" which is determined using the CalcuSyn software tool based on the Chou Talalay method. A CI could be interpreted as follows: CI<1, =1, and >1 indicate synergism; additive effect and antagonism, respectively (CalculSyn manual, Biosoft, 2006). Note that we define synergism as a more than expected additive effect, and antagonism as a less than expected additive effect. […]
(§3) In a second step, analysis and quantification of the drug combination efficacy were performed. […] Cell survival is measured using the XTT assay (see above).
(§4) Combination efficacy is evaluated by "the combination index (CI)" which was determined using the CalcuSyn software tool based on the Chou Talalay method. […]

The subject of data set [2] is histiocytic lymphoma cell line U937. The data set is described as follows: XTT cell survival assay and CalcuSyn combination index, U937. The conditions noted are these: Homo sapiens, U-937, monotherapy, XTT assay, dose at which 50% of the cells are viable. As to the method:
as §1
as §2, with “The IC50 (which represents the dose at which 50% of the cells are viable) is calculated by a non-linear regression model using GraphPad Prism software (version 5.04) by plotting the percentage viability against the Log of the drug concentration on each cell line.” left out
In a second step, analysis and quantification of the drug combination efficacy were performed. […] Belinostat + ATRi combinations was performed at a constant ratio (from IC50/8 to IC50*8) as previously described (Chou TC, Talalay P. Adv Enzyme Regul. 1984;22:27-55 (Quantitative analysis of dose-effect relationships: the combined effects of multiple drugs or enzyme inhibitors). Cell survival was measured using the XTT assay (see above).
Combination efficacy is evaluated by "the combination index (CI)" which is determined using the CalcuSyn software tool based on the Chou Talalay method. […]
as §3, §4

In data set [3] the test system is non-tumor mammary cell line MCF-10A. The data set is described as follows: XTT cell survival assay, non-tumor cells MCF-10A. The conditions noted are these: same drug doses as MDA-MB-231, 7 days; for sensitivity of non-tumor cells: XTT survival.
Description: Following drug exposure, cell survival was measured using the XTT assay (Sigma Aldrich). […] Following drug exposure, cell survival was measured using the XTT assay (Sigma Aldrich).

Regarding `Cc1cnc(NC(=O)Nc2cc(Br)c(C)cc2OC[C@@H]2CNCCO2)cn1` [LY2603618, 1-[5-bromo-4-methyl-2-[[(2S)-morpholin-2-yl]methoxy]phenyl]-3-(5-methylpyrazin-2-yl)urea], the IC50 in data set [1] is 3200 nM; in data set [2], 1100 nM. For the same molecule, the “sensitivity of non-tumor cells” value in data set [3] is “showed a sensitivity”.
Regarding `CS(=O)(=O)c1ccc(-c2cnc(N)c(C(=O)Nc3ccccc3)n2)cc1` [VE-821, 3-amino-6-(4-methylsulfonylphenyl)-N-phenylpyrazine-2-carboxamide], the IC50 in data set [1] is 18000 nM.
Consider `O=C(/C=C/c1cccc(S(=O)(=O)Nc2ccccc2)c1)NO` [Belinostat, (2E)-N-hydroxy-3-[3-(phenylsulfamoyl)phenyl]prop-2-enamide], for which the 50% inhibitory concentration (IC50) in data set [1] and in data set [2] was 250 nM throughout. Besides, in data set [3], the “sensitivity of non-tumor cells” value is “insensitive”.
As for `C[C@@H]1COCCN1c1cc(C2([S@](C)(=N)=O)CC2)nc(-c2cc[nH]c3nccc2-3)n1` [AZD6738, 4-[4-[1-[[S(R)]-S-methylsulfonimidoyl]cyclopropyl]-6-[(3R)-3-methyl-4-morpholinyl]-2-pyrimidinyl]-1H-pyrrolo[2,3-b]pyridine], the IC50 in data set [1] is 2500 nM; in data set [2], 500 nM. Moreover, the “sensitivity of non-tumor cells on adding belinostat” value in data set [3] (inhibitor plus belinostat) is “didn't increase”. For the same molecule, in data set [3], the “sensitivity of non-tumor cells” value is “showed a sensitivity”.
